Results: patent US11117926B2, “Cholane derivatives for use in the treatment and/or prevention of FXR and TGR5/GPBAR1 mediated diseases” (BAR PHARMACEUTICALS S.R.L., priority 2014, dated 2021)
Counter-ions that a name gives are not always drawn.

How the values were obtained:
[1] = target: T1, FXR (Homo sapiens, UniProt Q96RI1); assay: FXR mediated transactivation (luciferase reporter) in transfected HepG2 cells; format: cell-based; details: each compound at 10 microM, transactivation activity of CDCA on FXR = 100%
T1 construct: expressed in transfected cells; host or cells: HepG2
T1 sequence (Q96RI1 1-486): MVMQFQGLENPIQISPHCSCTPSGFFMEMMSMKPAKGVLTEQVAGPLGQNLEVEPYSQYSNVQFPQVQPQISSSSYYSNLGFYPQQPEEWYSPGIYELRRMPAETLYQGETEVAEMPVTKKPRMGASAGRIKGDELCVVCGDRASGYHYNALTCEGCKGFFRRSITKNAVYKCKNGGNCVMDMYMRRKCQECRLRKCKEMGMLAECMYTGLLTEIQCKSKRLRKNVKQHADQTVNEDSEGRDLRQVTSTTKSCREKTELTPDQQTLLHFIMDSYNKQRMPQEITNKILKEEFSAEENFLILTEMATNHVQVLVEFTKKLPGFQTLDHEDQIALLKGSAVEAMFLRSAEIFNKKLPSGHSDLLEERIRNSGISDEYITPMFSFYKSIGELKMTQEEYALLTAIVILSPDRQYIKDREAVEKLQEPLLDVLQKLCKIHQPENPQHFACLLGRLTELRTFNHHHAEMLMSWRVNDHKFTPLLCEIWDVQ
T1 sequence (P19793 1-462 partner): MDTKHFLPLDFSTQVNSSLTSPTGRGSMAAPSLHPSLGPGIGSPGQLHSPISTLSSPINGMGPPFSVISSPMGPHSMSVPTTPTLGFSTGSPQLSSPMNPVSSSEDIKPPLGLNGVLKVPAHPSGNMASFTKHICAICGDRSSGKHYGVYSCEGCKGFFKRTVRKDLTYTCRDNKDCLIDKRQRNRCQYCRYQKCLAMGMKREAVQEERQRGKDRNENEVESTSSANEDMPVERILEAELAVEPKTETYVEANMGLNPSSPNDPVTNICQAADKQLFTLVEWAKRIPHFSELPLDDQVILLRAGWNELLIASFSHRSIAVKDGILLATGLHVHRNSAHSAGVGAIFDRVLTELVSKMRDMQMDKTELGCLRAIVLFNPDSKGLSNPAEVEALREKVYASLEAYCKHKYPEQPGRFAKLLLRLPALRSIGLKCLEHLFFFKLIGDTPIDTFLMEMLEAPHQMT
Description: (§1) Each compound was tested at the concentration of 10 microM and transactivation activity of CDCA on FXR and TLCA on CRE (i.e. TGR5/GPBAR1) was considered equal to 100%.
(§2) Biological Activities. Activity of selected compounds was tested in vitro using a whole cell model transfected with a reporter genes to establish selectivity of compounds shown in table 1 toward FXR and TGR5/GPBAR1 in comparison with chenodeoxycholic acid (CDCA) and TLCA. CDCA is a primary bile acid that functions as an endogenous ligand for FXR, while TLCA is a physiological ligand for TGR5/GPBAR1. In this assay, HepG2 cells (a liver-derived cell line) were cultured at 37° C. in minimum essential medium with Earl's salts containing 10% fetal bovine serum (FBS), 1% L-glutamine, and 1% penicillin/streptomycin. […] The transfection experiments were performed using Fugene HD according to manufactured specifications. Cells were plated in a 24-well plate at 5×10^4 cells/well. For FXR mediated transactivation, HepG2 cells were transfected with 100 ng of pSG5-FXR, 100 ng of pSG5-RXR, 100 ng of pGL4.70 a vector encoding the human Renilla gene and 250 ng of the reporter vector p(hsp27)-TK-LUC containing the FXR response element IR1 cloned from the promoter of heat shock protein 27 (hsp27).
(§3) At 24 h post-transfection, cells were stimulated for 18 h with 10 μM TLCA as a control agent or putative GPBAR1 agonists as the same concentration. After treatments, cells were lysed in 100 μL of lysis buffer (25 mM Tris-phosphate, pH 7.8; 2 mM DTT; 10% glycerol; 1% Triton X-100), and 20 μL of cellular lysate was assayed for luciferase activity using the luciferase assay system. Luminescence was measured using Glomax 20/20 luminometer. Luciferase activities were normalized against Renilla activities. Antagonism against FXR of GPBAR1/TGR5 was measured as percent of activity in transactivation assay suing activity of TLCA as example of agonism.

[2] = target: T2, human GPBAR1 (Homo sapiens, UniProt Q8TDU6); assay: GPBAR1 mediated transactivation (CRE luciferase reporter) in transfected HEK-293T cells; format: cell-based; details: each compound at 10 microM, transactivation activity of TLCA on CRE = 100%
T2 construct: expressed in transfected cells; host or cells: HEK-293T
T2 sequence (Q8TDU6 1-330): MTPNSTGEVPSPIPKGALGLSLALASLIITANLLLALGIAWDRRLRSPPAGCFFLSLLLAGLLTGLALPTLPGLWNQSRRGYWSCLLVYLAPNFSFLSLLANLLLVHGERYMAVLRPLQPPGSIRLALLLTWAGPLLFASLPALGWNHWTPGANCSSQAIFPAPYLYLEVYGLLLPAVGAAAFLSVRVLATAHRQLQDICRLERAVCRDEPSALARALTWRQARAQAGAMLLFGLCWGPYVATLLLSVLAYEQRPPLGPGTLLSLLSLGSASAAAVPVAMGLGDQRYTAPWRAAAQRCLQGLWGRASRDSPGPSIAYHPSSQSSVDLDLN
Description: as §1, §2, §3

SMILES | FXR (% of activity in comparison to 10 μM CDCA) [1] [%] | GPBAR1 (% of activity in comparison to 10 μM TLCA) [2] [%]
CC[C@H]1[C@@H](O)C2C3CC[C@H]([C@H](C)CC#N)[C@@]3(C)CCC2[C@@]2(C)CC[C@@H](O)C[C@@H]12 (stereo partly drawn) [BAR506, 6α-ethyl-3α,7α-dihydroxy-24-nor-5β-cholan-23-nitrile] | 411.5 ± 36.5 | 80.9 ± 9.5
CC[C@H]1[C@@H](O)[C@@H]2[C@H](CC[C@]3(C)[C@@H]([C@H](C)CCCO)CC[C@@H]23)[C@@]2(C)CCCC[C@@H]12 [BAR701, 6α-ethyl-7α-hydroxy-5β-cholan-24-ol] | 101.3 ± 10.1 | 50.2 ± 2.3
CC[C@H]1[C@@H](O)[C@@H]2[C@H](CC[C@]3(C)[C@@H]([C@H](C)CCCOS(=O)(=O)[O-])CC[C@@H]23)[C@@]2(C)CCCC[C@@H]12.[Na+] [BAR701solf, 6α-ethyl-7α-hydroxy-5β-cholan-24-yl 24-sodium sulfate] | 229 ± 2.0 | 63.5 ± 0.5
CC[C@@H]1[C@H](O)[C@@H]2[C@H](CC[C@]3(C)[C@@H]([C@H](C)CCCO)CC[C@@H]23)[C@@]2(C)CCCC[C@@H]12 [BAR702, 6β-ethyl-7β-hydroxy-5β-cholan-24-ol] | 11.7 ± 0.8 | 35.8 ± 1.2
CC[C@H]1[C@H](O)[C@@H]2[C@H](CC[C@]3(C)[C@@H]([C@H](C)CCCO)CC[C@@H]23)[C@@]2(C)CCCC[C@@H]12 [BAR703, 6α-ethyl-7β-hydroxy-5β-cholan-24-ol] | 8.6 ± 0.8 | 47.7 ± 1.0
CC[C@H]1[C@@H](O)[C@@H]2[C@H](CC[C@]3(C)[C@@H]([C@H](C)CCC(=O)O)CC[C@@H]23)[C@@]2(C)CCCC[C@@H]12 [BAR704, 6α-ethyl-7α-hydroxy-5β-cholan-24-oic acid] | 220.5 ± 37.5 | 27.9 ± 6.3
CC[C@@H]1[C@@H](O)[C@@H]2[C@H](CC[C@]3(C)[C@@H]([C@H](C)CCCO)CC[C@@H]23)[C@@]2(C)CCCC[C@@H]12 [BAR705, 6β-ethyl-7α-hydroxy-5β-cholan-24-ol] | 43.7 ± 3.9 | 67.0 ± 9.9
CC[C@H]1[C@@H](O)[C@@H]2[C@H](CC[C@]3(C)[C@@H]([C@H](C)CCCO)CC[C@@H]23)[C@@]2(C)CC[C@H](O)C[C@@H]12 [BAR706, 6α-ethyl-3β,7α-dihydroxy-5β-cholan-24-ol] | 153 ± 9.0 | 66.05 ± 7.6
CC[C@H]1[C@H](O)[C@@H]2[C@H](CC[C@]3(C)[C@@H]([C@H](C)CCCO)CC[C@@H]23)[C@@]2(C)CC[C@H](O)C[C@@H]12 [BAR707, 6α-ethyl-3β,7β-dihydroxy-5β-cholan-24-ol] | 92.5 ± 7.5 | 65 ± 6.0
CC[C@@H]1[C@H](O)[C@@H]2[C@H](CC[C@]3(C)[C@@H]([C@H](C)CCCO)CC[C@@H]23)[C@@]2(C)CC[C@H](O)C[C@@H]12 [BAR708, 6β-ethyl-3β,7β-dihydroxy-5β-cholan-24-ol] | 6.4 ± 0.8 | 57.6 ± 4.6
CC[C@H]1[C@@H](O)C2C3CC[C@H]([C@H](C)CCOS(=O)(=O)O)[C@@]3(C)CCC2[C@@]2(C)CC[C@H](O)C[C@@H]12 (stereo partly drawn) [BARn706solf, 6α-ethyl-3β,7α-dihydroxy-24-nor-5β-cholan-23-yl 23-sodium sulfate] |  | 71.5 ± 0.5
